Values quoted from earlier work, collected in US7399616B2, “Enzymatic synthesis of Nα-acyl-L-arginine esters” (Laboratorios Miret, S.A., priority 2002, dated 2008).

Key:
microorganisms = settings: acts over external and cytoplasmatic membrane and into cytoplasmatic medium; depends on kind of microorganism and exposure time
[1] = rats; metabolised into naturally-occurring amino acids and lauric acid, excreted as carbon dioxide and urea
[2] = animals and humans

In the case of `CCCCCCCCCCCC(=O)N[C@@H](CCCN=C(N)N)C(=O)OCC.Cl` [LAE, ethyl ester of the laurylamide of the L-arginine monohydrochloride], the “action on microorganisms (proliferation)” value (microorganisms) is given as “preventing their proliferation”, the absorption and metabolism [1] is given as “fast absorption and metabolism” and the toxicity [2] is given as “completely harmless”.
